According to ChEMBL document CHEMBL1201862, “PubChem BioAssay data set” (2004):
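Grown in 96-well plates, cells were treated for 48 hours with each compound at five concentrations. Insufficient inhibition: endpoint recorded as highest concentration tested. GI50 marks 50% less growth.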 Active and inactive are the calls of the source. Rule as the data show it: active = GI50 up to about 1.1 µM and inactive = higher.

Assays:
Test in all cases: NCI anticancer screen, dose series, 48 h
[1] = test system: OVCAR-5
[2] = test system: XF498
[3] = test system: TK-10
[4] = test system: M14
[5] = test system: MOLT-4
[6] = test system: U-251
[7] = test system: UACC-257
[8] = test system: K562
[9] = test system: SF-295
[10] = test system: SK-MEL-2
[11] = test system: SK-MEL-28
[12] = test system: SNB-19
[13] = test system: HCT-15
[14] = test system: IGROV-1
[15] = test system: LOX IMVI
[16] = test system: HCT-116
[17] = test system: SW-620
[18] = test system: HT-29
[19] = test system: CCRF-CEM
[20] = test system: Malme-3M

| Structure (SMILES) | GI50 [1] | GI50 [2] | GI50 [3] | GI50 [4] | GI50 [5] | GI50 [6] | GI50 [7] | GI50 [8] | GI50 [9] | GI50 [10] | GI50 [11] | GI50 [12] | GI50 [13] [µM] | GI50 [14] | GI50 [15] | GI50 [16] | GI50 [17] | GI50 [18] | GI50 [19] | GI50 [20] |
| --- | --- | --- | --- | --- | --- | --- | --- | --- | --- | --- | --- | --- | --- | --- | --- | --- | --- | --- | --- | --- |
| COC(=O)C1(C(=O)OC)CC2c3c(c4ccccc4n3C)CC(C1=O)N2Cc1ccccc1 (stereo not given) | > 100 µM (inactive) | > 100 µM (inactive) | > 100 µM (inactive) | > 100 µM (inactive) | > 100 µM (inactive) | > 100 µM (inactive) | > 100 µM (inactive) | > 100 µM (inactive) | > 100 µM (inactive) | > 100 µM (inactive) | 80 µM (inactive) | > 100 µM (inactive) | > 100 | > 100 µM (inactive) | > 100 µM (inactive) | > 100 µM (inactive) | > 100 µM (inactive) | > 100 µM (inactive) | > 100 µM (inactive) | > 100 µM (inactive) |
| Cc1ccc(NC(=O)CC(=O)n2nc(C)c(/N=N/c3ccccc3C(=O)O)c2C)cc1 | > 100 µM (inactive) | > 100 µM (inactive) | > 100 µM (inactive) | > 100 µM (inactive) | > 100 µM (inactive) | > 100 µM (inactive) | > 100 µM (inactive) | > 100 µM (inactive) | > 100 µM (inactive) | > 100 µM (inactive) | > 100 µM (inactive) | > 100 µM (inactive) | > 100 | > 100 µM (inactive) | > 100 µM (inactive) | > 100 µM (inactive) | > 100 µM (inactive) | > 100 µM (inactive) | > 100 µM (inactive) | > 100 µM (inactive) |
| COc1ccc(C2C(Cl)C(=O)N2NC(=O)c2ccc(N)cc2)cc1OC (stereo not given) | 19.1 µM (inactive) | 1 µM (active) | 17 µM (inactive) | 8.43 µM (inactive) | 1.96 µM (inactive) | 2.72 µM (inactive) | 14.5 µM (inactive) | 3.12 µM (inactive) | 7.16 µM (inactive) | 11.9 µM (inactive) | 2.48 µM (inactive) | 13.9 µM (inactive) | 7.46 | 1.36 µM (inactive) | 1.5 µM (inactive) | 1.5 µM (inactive) | 3.27 µM (inactive) | 2.53 µM (inactive) | 1.71 µM (inactive) | 12.5 µM (inactive) |
| CC(=O)c1cccc(NC(=O)C(=O)C(C2OC(=O)c3ccccc32)[N+](=O)[O-])c1 (stereo not given) | > 100 µM (inactive) | > 100 µM (inactive) | > 100 µM (inactive) | > 100 µM (inactive) | > 100 µM (inactive) | > 100 µM (inactive) | > 100 µM (inactive) | > 100 µM (inactive) | > 100 µM (inactive) | > 100 µM (inactive) | > 100 µM (inactive) | > 100 µM (inactive) | > 100 | > 100 µM (inactive) | > 100 µM (inactive) | > 100 µM (inactive) | > 100 µM (inactive) | > 100 µM (inactive) | > 100 µM (inactive) | > 100 µM (inactive) |
| O=C(O)C(=O)/C=C\c1ccc(Cl)cc1 | > 100 µM (inactive) | > 100 µM (inactive) | > 100 µM (inactive) | > 100 µM (inactive) | > 100 µM (inactive) | 66.4 µM (inactive) | > 100 µM (inactive) | > 100 µM (inactive) | > 100 µM (inactive) | > 100 µM (inactive) | > 100 µM (inactive) | > 100 µM (inactive) | > 100 | > 100 µM (inactive) | > 100 µM (inactive) | > 100 µM (inactive) | 10.6 µM (inactive) | > 100 µM (inactive) | > 100 µM (inactive) | > 100 µM (inactive) |
